Reference: PMC6270814, “Effects of Ursolic Acid Derivatives on Caco-2 Cells and Their Alleviating Role in Streptozocin-Induced Type 2 Diabetic Rats” (Molecules, 2014)

Tests used:
Caco-2 cells = test: 2-NBDG glucose uptake by Caco-2 cell monolayers, Na+-independent (sodium free buffer); format: cell-based, Human; conditions: 100 μM compound, Na+-independent (KCl/K2HPO4 buffer)
Experimental: Caco-2 cells, which were derived from human colon adenocarcinoma, were selected for intestinal absorption studies because these cells express the morphological characteristics and most of the functional properties of differentiated small-intestinal enterocytes. Caco-2 cells were seeded on 24-well plates at the density of 2 × 10^5 cells/well. The medium was changed every 1–2 days, and the culture was carried out for 13 days. Then Caco-2 cells were placed in serum-free media for 24 h and then they were washed twice with Hanks’ balanced salt solution (HBSS, pH 7.5, 140 mM NaCl, 5 mM KCl, 1.2 mM Na2HPO4, 2 mM CaCl2, 1.2 mM MgSO4, 20 mM HEPES, 0.2% bovine serum albumin) before the uptake studies. When a sodium free buffer was required, NaCl and Na2HPO4 were replaced with equal amounts of KCl and K2HPO4, respectively. After washing, the cells were incubated for 15 min at room temperature in HBSS before the commencement of this experiment. The uptake studies were initiated by adding HBSS containing either control or test solution (100 μM) and […] (100 μM) for 30 min at 37 °C. Glucose uptake was stopped by adding twofold volume of ice-cold PBS and the wells were washed with ice-cold PBS three times. Fluorescent intensity was measured by a Multimodel Plate Reader (Tecan Infinity 200) with the 485 nmex and 535 nmemiss filter set before and after adding 2-NBDG. Then the cells were lysed in 200 μL lysis buffer (10 mM Tris-HCl pH = 7.4, 150 mM NaCl, 1% Triton-x-100, 1 mM EDTA, 0.1% SDS) and supplemented immediately before they were processed with 10 μg/mL PMSF. Cells were allowed to lyse on ice, and then vortexed and sonicated. The lysate was used for protein determination, protein concentrations were determined as described by BCA kit (Boster, Wuhan, China) with bovine serum albumin as standard.

[1] = test system: STZ-induced diabetic rats; test: Fasting blood glucose in STZ-induced diabetic rats, 4 weeks treatment; format: in vivo, rat
Experimental: Adult male albino rats of Sprague-Dawley rats (180–220 g) were obtained from the Guangdong Medical Lab Animal Center, and maintained under standard laboratory conditions in a temperature (25–30 °C) and light-controlled (12-h light/dark cycle) room with 35%–60% humidity. The animals were acclimatized for 10 days before the experiments and provided with rodent chow and water ad libitum. The investigation was conducted in accordance with the Guide for the Care and Use of Laboratory Animals and approved by the institutional Animal Ethics Committee.
(§1) Diabetes was induced by a single intraperitoneal injection of streptozotocin (Sigma-Aldrich, St. Louis, MO, USA) at a dose of 65 mg/kg body weight. STZ was dissolved in 0.1 M cold citrate buffer, pH 4.5. Control group were injected with citrate buffer alone. After 7 days for the development of diabetes, plasma glucose levels were determined of each rat. Rats with fasting blood glucose (FBG) range of above 16.7 mmol/L were considered as DM rats and were used for further study.
(§2) According to the body weight and plasma glucose levels the rats were divided randomly into seven groups with six rats each and treated as follows: • Group I: Normal rats treated with 0.5% CMC-Na (2 mL/200 g body weight). • Group II: Diabetic rats treated with 0.5% CMC-Na. • Group III: Diabetic rats treated with 10 mg/kg of glibenclamide. • Group IV: Diabetic rats treated with 100 mg/kg of compound 1 (UA). • Group V: Diabetic rats treated with 100 mg/kg of compound 10. • Group VI: Diabetic rats treated with 100 mg/kg of compound 11. • Group VII: Diabetic rats treated with 100 mg/kg of compound 12.
(§3) The treatment was continued daily for 28 days. Blood glucose levels and body weight were measured every week to ascertain the status of diabetes. After 4 weeks of treatment, the animals were fasted for 12 h and sacrificed by cervical dislocation under mild anaesthetization, blood was collected into heparinized tubes and centrifuged at 2,000 rpm for 10 min. Livers and kidneys were removed, washed and homogenized in ice-cold normal saline. This homogenates were centrifuged at 3,000 rpm for 10 min at 4 °C, and the supernatants were collected for the estimate of antioxidant markers.
(§4) Fasting blood glucose levels were estimated on days 0, 7, 14, 28 with the single touch glucometer (Life Scan, Johnson & Johnson Company, New Brunswick, NJ, USA). Serum insulin level was measured by use of a commercial immunoassay kit by enzyme linked immunosorbent assay (Uscn. Life Science Inc., Wuhan, China). Serum total protein, albumin, triglycerides (TG), total cholesterol (TC), high-density lipoprotein cholesterol (HDL-C), and low-density lipoprotein cholesterol (LDL-C) were measured with an automatic biochemical analyzer (Sinnowa D240, Nanjing, China).

[2] = test system: STZ-induced diabetic rats; test: Serum biochemical parameters (insulin, total protein, albumin) in STZ-induced diabetic rats; format: in vivo, rat; conditions: 4 weeks, compounds 100 mg/kg, glibenclamide 10 mg/kg
Experimental: as §1, §2, §3, §4

[3] = test system: STZ-induced diabetic rats; test: Body weight and daily food intake of STZ-induced diabetic rats; format: in vivo, rat
Experimental: as §1, §2, §3

[4] = test system: STZ-induced diabetic rats; test: Serum lipid profile (TG, TC, LDL-C, HDL-C) in STZ-induced diabetic rats; format: in vivo, rat; conditions: 4 weeks, compounds 100 mg/kg, glibenclamide 10 mg/kg
Experimental: as §1, §2, §3, §4

CCC(=O)O[C@H]1CC[C@@]2(C)C(CC[C@]3(C)C2CC=C2C4[C@@H](C)[C@H](C)CC[C@]4(C(=O)O)CC[C@]23C)C1(C)C (some centres unmarked) [Compound 10]
glucose uptake, % of the control value (Na+-independent) (Caco-2 cells): 70 % of the control value | Fasting Blood Glucose Level, Week 0 ([1]; STZ diabetic rats, Week 0 (before treatment), compounds 100 mg/kg, glibenclamide 10 mg/kg, n = 6): 320.40 ± 12.96 mg/dL | Fasting Blood Glucose Level, Week 1 ([1]; STZ diabetic rats, Week 1, compounds 100 mg/kg, glibenclamide 10 mg/kg daily, n = 6): 270.00 ± 16.74 mg/dL | Fasting Blood Glucose Level, Week 2 ([1]; STZ diabetic rats, Week 2, compounds 100 mg/kg, glibenclamide 10 mg/kg daily, n = 6): 286.20 ± 18.90 mg/dL | Fasting Blood Glucose Level, Week 3 ([1]; STZ diabetic rats, Week 3, compounds 100 mg/kg, glibenclamide 10 mg/kg daily, n = 6): 234.00 ± 14.58 mg/dL | Fasting Blood Glucose Level, Week 4 ([1]; STZ diabetic rats, Week 4, compounds 100 mg/kg, glibenclamide 10 mg/kg daily, n = 6): 225.00 ± 11.70 mg/dL | decrease in blood glucose levels as compared with diabetic control ([1]; end of the 4 week treatment, compound 10 100 mg/kg, glibenclamide 10 mg/kg): 49.6% | serum albumin level vs diabetic control [2]: increased significantly | serum insulin level vs diabetic control [2]: increased significantly | serum total protein level vs diabetic control [2]: increased significantly | daily food intake vs untreated diabetic rats ([3]; compounds 100 mg/kg, glibenclamide 10 mg/kg, oral): reduce daily food intake significantly | body weight vs diabetic control ([3]; end of the treatment period, 100 mg/kg): significant increase | serum TC level vs diabetic control [4]: significantly decreased | serum TG level vs diabetic control [4]: significantly decreased
